Our source for the IC50 values is ChEMBL document CHEMBL5505987 (Eur J Med Chem, 2024).

Type in all cases: functional, cell-based
One test deals with A549. As to the kind of experiment: Cytotoxicity against human A549 cells assessed as cell viability by MTT assay. A general note: Tetrazolium dyes change colour on reduction, which living cells bring about.
Another test has as its system MCF7. The experiment in a line: Cytotoxicity against human MCF7 cells assessed as cell viability by MTT assay.
The subject of another test is HeLa. The experiment in a line: Cytotoxicity against human HeLa cells assessed as cell viability by MTT assay.
In a further test the test system is MDA-MB-231. The experiment in a line: Cytotoxicity against human MDA-MB-231 cells assessed as cell viability by MTT assay.

On to `O=C1C[C@@H](c2ccccc2)Oc2cc(O)c([C@@H](/C=C/C[C@@H](O)CCc3ccccc3)c3ccccc3)c(O)c21`, for which the half-maximal inhibitory concentration (IC50) in the test with A549 stood at 3.27 µM; in the test on MCF7, 4.16 µM; in the test with HeLa it was 0.67 µM; with MDA-MB-231 it was 1.48 µM.

With `O=C1C[C@H](c2ccccc2)Oc2cc(O)c([C@H](/C=C/C[C@@H](O)CCc3ccccc3)c3ccccc3)c(O)c21`, the IC50 in the test with A549 is 5.59 µM; with MCF7, 12.5 µM; in the test on HeLa, 1.58 µM; in the test with MDA-MB-231, 3.45 µM.

The IC50 is the concentration at which inhibition is half-maximal.
